In brackets after ≈: the same amount, converted by molar mass. Where two headings read alike, the source gives them in different places.
Columns and labels:
MSSA [1] = assay: Dispersion of pre-formed biofilms; type: cell-based, S. aureus; settings: Staphylococcus aureus, read-out: EC50, 50% dispersion of a pre-formed biofilm
Method: The ability of 15 and 19 to disperse pre-formed biofilms was also determined for all of the aforementioned bacterial strains (both marine and terrestrial). To quantify this effect, the EC50 value of each compound against each bacterial strain was determined, where EC50 is defined as the concentration of compound that elicits 50% dispersion of a pre-formed biofilm. Both compounds are able to disperse pre-formed biofilms at low micromolar concentrations. These concentrations are also microbicidal to planktonic bacteria. […]
Preformed Biofilms: Dispersion assays were performed by taking an overnight culture of bacterial strain and subculturing it at an OD600 of 0.01 into the necessary medium (brain heart infusion for E. faecium, tryptic soy broth with a 0.5% glucose supplement (TSBG) for MRSA, S. aureus and S. epidermidis, Luria-Bertani (LB) medium for MDRAB and E. coli, and tryptic soy broth with a 0.5% glucose supplement and a 3.0% NaCl supplement (TGN) for R. salexigens, V. cholerae, V. vulnificus and L. anguillarum.) The resulting bacterial suspension was aliquoted (100 μL) into the wells of a 96-well PVC microtiter plate. […] Biofilm dispersion was quantitated by measuring the OD540 of each well in which a negative control lane wherein no biofilm was formed served as a background and was subtracted out.

[2] = test system: difibrinated sheep's blood; assay: Red blood cell hemolysis assay; type: cell-based
Method: Once the anti-biofilm and antibacterial properties of each 2-AI derivative had both been evaluated, the hemolytic potential of compounds 15, 19 and 1 was assessed (Liu et al., Antimicrob. Agents. Ch., 2007, 51: 597-603). […] Hemolysis was measured using difibrinated sheep's blood. Hemolytic potential was quantified by determining the HD50 of compound 15, 19 and 1, where HD50 is defined as the concentration that elicits 50% hemolysis. From this assay, we determined that the HD50 of compound 15, 19 and 1 were 66 μM, 61 μM and >400 μM. This corresponds to 22 and 21 μg/mL for compounds 15 and 19.
Red Blood Cell Hemolysis Assay.
Hemolysis assays were performed on mechanically difibrinated sheep blood (Hemostat Labs: DSB100). 1.5 mL of blood was placed into a microcentrifuge tube and centrifuged at 10000 rpm for ten minutes. The supernatant was removed and then the cells were resuspended with 1 mL of phosphate-buffered saline (PBS). The suspension was centrifuged, the supernatant was removed and cells resuspended two more times. The final cell suspension was then diluted tenfold. Test compound solutions were made in PBS and then added to aliquots of the tenfold suspension dilution. PBS alone was used as a negative control and as a zero hemolysis marker whereas a 1% Triton X sample was used as a positive control and the 100% lysis marker. Samples were then placed in an incubator at 37° C. while being shaken at 200 rpm for one hour. After one hour, the samples were transferred to microcentrifuge tubes and then centrifuged at 10000 rpm for ten minutes. The resulting supernatant was diluted by a factor of 40 in distilled water. The absorbance of the supernatant was measured with a UV spectrometer at a 540 nm wavelength.

Vibrio vulnificus = assay: Marine bacteria microdilution MIC; settings: V. vulnificus
MRSA = assay: Broth microdilution MIC; type: cell-based, methicillin-resistant S. aureus; settings: Staphylococcus aureus
Method: (§1) Once it was determined that this specific 4,5-disubstitution pattern imparted microbicidal activity onto the 2-AI framework, this activity was quantified by measuring the MIC of each derivative against a variety of representative pathogenic bacterial strains using the microdilution protocol (CSLI, Performance Standards for Antimicrobial Suceptibility Testing; Nineteenth Informational Supplement, Clinical and Laboratory Standards Institute, Wayne, Pa., 2009). E. coli, MDRAB, P. aeruginosa, MRSA, MSSA, S. epidermidis and VRE were used for initial evaluation. From this screen, compound 15 was determined to be the lead compound and had MIC values (μg/mL) of 2, 2, 1, 0.5, 0.25, and 1 against E. coli, MDRAB, MRSA, VRE, S. Epidermidis and MSSA.
(§2) S. aureus (ATCC #29213), S. epidermidis (ATCC #29886), MRSA (ATCC # BAA-44), MDRAB (ATCC # BAA-1605), vancomycin resistant Enterococcus faecium (VRE) (ATCC #51559) and E. coli (ATCC #35695) were obtained from the ATCC. Mechanically difibrinated sheep blood (DSB100) was obtained from Hemostat Labs. Mueller-Hinton medium was purchased from Fluka (#70192).
(§3) Broth Microdilution Method for MIC Determination.

MSSA [3] = assay: Broth microdilution MIC; type: cell-based, S. aureus; settings: Staphylococcus aureus
Method: as §1, §2, §3

[4] = Dye dispersion assay from synthetic vesicles; settings: 5 minutes
Method: Finally, given that active compounds are characterized by a polar head group and a lipophilic tail, it was probed whether compounds 15 and 19 were eliciting their activity via a pore forming mechanism. Compound 1 was used as a control. This was probed via a dye dispersion assay from synthetic vesicles (Liu et al., J. Am. Chem. Soc., 2001, 123, 7553-7559). Two types of vesicles were prepared, one containing 1-palmitoyl-2-oleoyl-sn-glycero-3-phosphocholine (POPC) and the other containing 1-palmitoyl-2-oleoyl-sn-glycero-3-phosphoglycerol (POPG). POPC mimics typical cell membranes encountered for mammalian red blood cells, while POPG mimics the negatively charged lipids encountered in bacterial membranes. In 5 minutes, at 25 μM, compounds 15 and 19 elicited 20% dye leakage from the POPG vesicles while they elicited 10% and 15% dye leakage from the POPC vesicles respectively. However, in 5 minutes at 500 μM, compounds 15 and 19 elicited 78% and 85% dye leakage from the POPG vesicles respectively. In 5 minutes at 25 μM, control compound 1 elicited 9% and 18% leak dye leakage from the POPC and POPG vesicles respectively, while in 5 minutes at 500 μM 1 elicited 15% and 50% leakage from the POPC and POPG vesicles. Given this differential response, and without wishing to be bound by theory, it is likely that compounds 15 and 19 are inducing microbicidal activity through a simple pore-forming mechanism.

Compound | EC50 (MSSA [1]) [µM] | HD50 (concentration that elicits 50% hemolysis) [2] [µM] | HD50 (concentration that elicits 50% hemolysis) ([2]; converted from μM) [µg/mL] | MIC (Vibrio vulnificus) [mg/L] | MIC (Vibrio vulnificus; Vibrio vulnificus) [mg/L] | MIC (MRSA) [mg/L] | MIC (MSSA [3]) [mg/L] | dye leakage ([4]; POPC vesicles, 25 μM) [%] | dye leakage ([4]; POPG vesicles, 25 μM) [%] | dye leakage ([4]; POPG vesicles, 500 μM) [%]
CCCCCc1[nH]c(N)nc1CCCCCc1ccccc1 [Compound 15, 5-pentyl-4-(5-phenylpentyl)-1H-imidazol-2-amine] | 19.9 ± 3.3 | 66 | 22 | 2.10 (≈ 7.01 µM) | 2.1 (≈ 7.01 µM) | 1 (≈ 3.34 µM) | 1 (≈ 3.34 µM) | 10 | 20 | 78
CCCCCCc1[nH]c(N)nc1CCCCCc1ccccc1 [Compound 19, 5-hexyl-4-(5-phenylpentyl)-1H-imidazol-2-amine] | 26.1 ± 0.7 | 61 | 21 | – | 2.2 (≈ 7.02 µM) | 1 (≈ 3.19 µM) | 1 (≈ 3.19 µM) | 15 | 20 | 85

Source: patent US9815794B2, “Inhibition of bacterial biofilms and microbial growth with imidazole derivatives” (North Carolina State University, priority 2011, dated 2017)
